From PubChem BioAssay AID687029 (Broad Institute, 2013)

Tested on: RMG-1 viability, CellTiterGlo ATP luminescence, 96 h
Assay: RMG-1 ovarian cancer cell viability loss – cherry-pick, dose response (AID 687029)

Structure (SMILES)	AC50
O=C(Nc1ccc(OCC(F)(F)C(F)F)c(C(F)(F)F)c1)c1ccccc1O	< 0.26 µM
CCOc1ccc2nc(N/C(N)=N/C(=S)Nc3ccc(C)c(C)c3)nc(C)c2c1	< 0.26 µM
O=C(Nc1ccccc1)NN(C(=O)CCl)c1ccccc1	12.3 µM
CCOC(=O)Nc1ccc2c(c1)N(C(=O)CCN(CC)CC)c1ccccc1S2=O (stereo not given)	< 0.26 µM
Cc1ccc(Cl)cc1N1CCN(C(=O)c2noc(C)c2[N+](=O)[O-])CC1	< 0.26 µM
COc1ccccc1C(=O)Nc1nc2ccccc2[nH]1	12.3 µM
CCOC(=O)c1c(-c2ccc(F)cc2)csc1NC(=O)CN1C(=O)NC2(CCCCC2C)C1=O (stereo not given)	12.4 µM
C[C@@H]1CCCCO[C@@H](CN(C)C(=O)Nc2cccc3ccccc23)[C@H](C)CN([C@H](C)CO)C(=O)c2cc(NS(=O)(=O)c3ccc(F)cc3)ccc2O1	< 0.26 µM
Cc1cc(CN(C)C(=O)c2cc(COc3ccc4ncccc4c3)on2)on1	< 0.26 µM
COCCn1c(C)cc(C2=NNC(=NC3CC3)SC2)c1C	< 0.26 µM
Cc1cc(C)c2c(N)c(C(=O)Nc3ncc(C)s3)sc2n1	1.01 µM
C[C@@H]1CCCCO[C@@H](CN(C)Cc2ccc(C(F)(F)F)cc2)[C@@H](C)CN([C@@H](C)CO)C(=O)c2cc(NS(=O)(=O)c3ccc(F)cc3)ccc2O1	35.5 µM
CCCCN=C[C@]12CCC(O)CC1(O)CCC1[C@@H]2CC[C@]2(C)[C@H](C3C=CC(=O)O3)CCC12O (stereo not given in full)	< 0.26 µM
O=C1CN(C(=O)Cn2ncc(Cl)c(Cl)c2=O)c2ccccc2N1	< 0.26 µM
O=[N+]([O-])c1cccnc1S(=O)(=O)c1ccccc1	< 0.26 µM
O=C(NC12CC3CC(CC(C3)C1)C2)c1ccc([N+](=O)[O-])o1	< 0.26 µM
C[C@H](O)[C@@H]1CN2CCc3c([nH]c4ccc(-c5ccc6c(c5)OCO6)cc34)[C@@H]2C[C@@H]1N(C)C(=O)NC1CCCCC1	< 0.26 µM
COc1cc(-c2cnc3c(NC=O)cc(-c4ccccc4)cn23)cc(OC)c1OC	< 0.26 µM
C[C@H](CO)N1C[C@H](C)[C@H](CN(C)Cc2ccc(C(F)(F)F)cc2)OCCCC[C@H](C)Oc2ccc(NS(=O)(=O)c3ccccc3)cc2C1=O	0.927 µM
COc1cccc(S(=O)(=O)NCC(=O)Nc2ccc(C(C)(C)C)cc2)c1	< 0.26 µM

Structure (SMILES)	AC50
C[C@@H]1O[C@@H](O[C@@H]2C=C3CC[C@@H]4C(CC[C@]5(C)[C@@H](c6ccc(=O)oc6)CC[C@]45O)[C@@]3(C)CC2)[C@H](O)[C@H](O)[C@H]1O (stereo not given in full)	< 0.26 µM
COc1ccc(N2C(=O)CC(Sc3nnc(-c4ccccc4)o3)C2=O)cc1 (stereo not given)	< 0.26 µM
CC1CC(C)(O)CC(C(O)CC2CC(=O)NC(=O)C2)C1=O (stereo not given)	< 0.26 µM
COc1cc(C=C2C(=O)C=CC2=O)ccc1O	< 0.26 µM
COc1ccc(C)cc1NS(=O)(=O)c1ccc(-c2cnc(C3CC3)o2)cc1	0.376 µM
C[C@@H]1CN([C@H](C)CO)S(=O)(=O)c2ccc(C#CC3CCCC3)cc2O[C@@H]1CN(C)C(=O)Cc1ccncc1	< 0.26 µM
CCCC1=Nc2cc(C(=O)NCCCOCC)ccc2Sc2ccccc21	< 0.26 µM
C[C@]12CC[C@H]3[C@@H](CC[C@]4(O)C[C@@H](O)CC[C@]34C=O)[C@@]1(O)CC[C@@H]2C1=CC(=O)OC1	< 0.26 µM
CCSc1cc(N2CCOCC2)nc(-c2ccc(Cl)cc2)n1	< 0.26 µM
C#CCN(C[C@@H]1[C@@H](OC(=O)NCC2CCCCC2)[C@@H](OC(=O)NCC2CCCCC2)Cn2c(=O)ccc(=O)n21)S(=O)(=O)c1ccc(C)cc1	< 0.26 µM
CC(=O)[C@@]1(O)Cc2c(O)c3c(c(O)c2[C@H](O[C@H]2C[C@H](N)[C@H](O)[C@H](C)O2)C1)C(=O)c1ccccc1C3=O	9.48 µM
Cc1ccc(NC(=O)Cn2ncc(Cl)c(Cl)c2=O)cc1S(=O)(=O)N1CCCCC1	< 0.26 µM
CN1c2ccc(-c3cccc(F)c3)cc2[C@@H]2[C@@H](CCN2C(=O)Cc2ccccc2)[C@@H]1CO	0.479 µM
O=C(CN1C(=O)c2ccccc2S1(=O)=O)c1ccc2c(c1)OCCO2	< 0.26 µM
COc1ccc(-n2nc3c(N4CCC(C(=O)NCc5cccc(C)c5)CC4)nnc(C)c3c2C)cc1	< 0.26 µM
Cc1cc(C(C)(C)C)cc(C)c1Cn1c2[n+](c3ccc(C(F)(F)F)cc31)CCCCC2	< 0.26 µM
C=C(C)c1cccc(C(C)(C)NC(=O)N2CCN(c3ccccc3OC)CC2)c1	< 0.26 µM
C[C@@H]1CCCCO[C@H](CN(C)Cc2ccc(C(F)(F)F)cc2)[C@H](C)CN([C@H](C)CO)C(=O)c2cc(NS(=O)(=O)c3cccs3)ccc2O1	< 0.26 µM
CCC(C)(O)C(=O)OC1C(=O)OC2CC3C(C)=CC(=O)C(O)C3(C)C3C4(O)OCC23C1C(C)C4O (stereo not given)	19.7 µM
Brc1ccc(-n2cc(-c3ccccc3)c3c(NN4CCOCC4)ncnc32)cc1	< 0.26 µM
